From PubChem BioAssay (NCI) come the findings set out here.

Test systems include MOLT-4 leukemia; HS 578T breast; SK-MEL-2 melanoma; EKVX NSCLC; OVCAR-4 ovarian; SK-OV-3 ovarian; OVCAR-8 ovarian; M14 melanoma; NCI-H522 lung; A549 NSCLC.
Test in all cases: NCI-60 cell line screen, 48 h

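48-hour exposure; five concentrations; linearly interpolated endpoints. The concentration for 50% growth inhibition is given as GI50. TGI: concentration producing complete growth inhibition.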

As for `COc1cc(/C=C2\C(=O)Nc3cccc(Cl)c32)cc(OC)c1OC`, the GI50 in the assay with MOLT-4 leukemia is 0.142 µM; in the assay with HS 578T breast, more than 100 µM; in the assay with SK-MEL-2 melanoma, more than 100 µM; in the assay on EKVX NSCLC it was more than 100 µM; in the assay on OVCAR-4 ovarian, more than 100 µM; in the assay on SK-OV-3 ovarian, more than 100 µM. The GI50 in the assay with OVCAR-8 ovarian, in the assay on M14 melanoma, with NCI-H522 lung and with A549 NSCLC was more than 100 µM each time. For the same compound, the TGI in the assay on MOLT-4 leukemia was 1.34 µM; in the assay on HS 578T breast, more than 100 µM; in the assay on SK-MEL-2 melanoma, more than 100 µM; in the assay with EKVX NSCLC it was more than 100 µM; with OVCAR-4 ovarian, more than 100 µM; in the assay on SK-OV-3 ovarian, more than 100 µM. Moreover, the TGI in the assay with OVCAR-8 ovarian, in the assay on M14 melanoma, with NCI-H522 lung and with A549 NSCLC was more than 100 µM throughout.

For `C=C1C(=O)OC2CC(C)C3C=CC(=O)C3CC12` (stereo not given), the TGI with MOLT-4 leukemia was found to be 4.68 µM; in the assay on HS 578T breast, 6.53 µM; in the assay with SK-MEL-2 melanoma, 4.49 µM; with EKVX NSCLC it was 26.3 µM; in the assay with OVCAR-4 ovarian it was 9.68 µM; in the assay with SK-OV-3 ovarian it was 33.3 µM. Further, the TGI in the assay on OVCAR-8 ovarian was found to be 14.4 µM; with M14 melanoma, 3.46 µM; in the assay on NCI-H522 lung it was 1.95 µM; in the assay with A549 NSCLC it was 24 µM.

Consider `C=C1C(=O)O[C@H]2[C@H]1CC/C(Cn1cc(-c3cc(C)c(C)cc3C)nn1)=C\CC[C@@]1(C)O[C@@H]21`, for which the GI50 was 2.38 µM in the assay with MOLT-4 leukemia; 1.94 µM with HS 578T breast; 1.75 µM with SK-MEL-2 melanoma; 1.22 µM in the assay on EKVX NSCLC; 0.701 µM with OVCAR-4 ovarian; 11.7 µM in the assay with SK-OV-3 ovarian. Also, the GI50 was 0.927 µM with OVCAR-8 ovarian, 1.5 µM with M14 melanoma, 0.282 µM in the assay with NCI-H522 lung and 1.73 µM with A549 NSCLC. The TGI in the assay on MOLT-4 leukemia was 7.34 µM; in the assay with HS 578T breast, 6.2 µM; in the assay on SK-MEL-2 melanoma, 3.59 µM; in the assay with EKVX NSCLC, 2.53 µM; in the assay on OVCAR-4 ovarian, 2.12 µM; with SK-OV-3 ovarian, 23.9 µM. The TGI came to 2.38 µM with OVCAR-8 ovarian, 3.27 µM with M14 melanoma, 1.17 µM in the assay with NCI-H522 lung and 4.31 µM with A549 NSCLC.

Regarding `COc1ccccc1-c1cc(=O)c2ccc(OC)c(OC)c2o1`, the TGI with MOLT-4 leukemia, with HS 578T breast, with SK-MEL-2 melanoma, in the assay on EKVX NSCLC, in the assay with OVCAR-4 ovarian and with SK-OV-3 ovarian was more than 100 µM throughout. Besides, the TGI in the assay with OVCAR-8 ovarian, in the assay with M14 melanoma, in the assay on NCI-H522 lung and with A549 NSCLC was more than 100 µM throughout.

For `NC1=Nc2cc(OCCCN3Cc4ccccc4C3)c(OCC3CC3)cc2C12CCCC2`, the GI50 in the assay with MOLT-4 leukemia was 2.17 µM; with HS 578T breast it was 2.83 µM; in the assay on SK-MEL-2 melanoma, 2.35 µM; in the assay with EKVX NSCLC, 3.18 µM; with OVCAR-4 ovarian it was 3.55 µM; with SK-OV-3 ovarian it was 4.48 µM. The GI50 is 3.71 µM with OVCAR-8 ovarian, 1.85 µM in the assay on M14 melanoma, 2.25 µM with NCI-H522 lung and 3.99 µM with A549 NSCLC. The TGI in the assay with MOLT-4 leukemia was determined as 6.22 µM; with HS 578T breast, 17.7 µM; in the assay with SK-MEL-2 melanoma it was 4.7 µM; in the assay with EKVX NSCLC, 11.8 µM; in the assay on OVCAR-4 ovarian it was 16.6 µM; in the assay on SK-OV-3 ovarian it was 17.4 µM. Besides, the TGI was found to be 13.9 µM with OVCAR-8 ovarian, 3.47 µM in the assay with M14 melanoma, 4.87 µM in the assay on NCI-H522 lung and 13.5 µM with A549 NSCLC.

Turning to `CCNCCCn1c2c(c3ccc([N+](=O)[O-])cc3c1=O)C(=O)c1cc(OC)cnc1-2`, the GI50 was 0.029 µM in the assay on MOLT-4 leukemia; 1.05 µM with HS 578T breast; 0.349 µM with SK-MEL-2 melanoma; 0.204 µM in the assay with EKVX NSCLC; 0.176 µM in the assay on OVCAR-4 ovarian; 0.0589 µM in the assay on SK-OV-3 ovarian. For the same compound, the GI50 in the assay with OVCAR-8 ovarian is 0.0519 µM; in the assay with M14 melanoma, 0.0408 µM; in the assay with NCI-H522 lung it was 0.0361 µM; in the assay on A549 NSCLC, 0.0776 µM. For the same compound, the TGI with MOLT-4 leukemia came out at 0.25 µM; in the assay with HS 578T breast it was 4.33 µM; in the assay on SK-MEL-2 melanoma it was 1.9 µM; with EKVX NSCLC it was 1.27 µM; in the assay on OVCAR-4 ovarian, 1.49 µM; in the assay on SK-OV-3 ovarian, 1.62 µM. Besides, the TGI was 0.479 µM in the assay on OVCAR-8 ovarian, 0.437 µM in the assay on M14 melanoma, 0.898 µM in the assay with NCI-H522 lung and 0.296 µM in the assay on A549 NSCLC.

In the case of `Cc1c(N=Cc2ccc(N(CCC#N)CCC#N)cc2)c(=O)n(-c2ccccc2)n1C`, the TGI in the assay with MOLT-4 leukemia, in the assay on HS 578T breast, in the assay with SK-MEL-2 melanoma, in the assay on EKVX NSCLC, in the assay with OVCAR-4 ovarian and with SK-OV-3 ovarian was more than 100 µM each time. Also, the TGI in the assay on OVCAR-8 ovarian, in the assay on M14 melanoma, in the assay on NCI-H522 lung and in the assay with A549 NSCLC was more than 100 µM each time.

Turning to `COc1ccc(N(/C=C/C(=O)C(F)(F)F)CC(=O)c2ccc(Cl)c(Cl)c2)cc1`, the GI50 was 3.9 µM in the assay on MOLT-4 leukemia; 4.81 µM in the assay on HS 578T breast; 19.6 µM in the assay on SK-MEL-2 melanoma; 13.2 µM in the assay with EKVX NSCLC; 32 µM in the assay on OVCAR-4 ovarian; 20.1 µM with SK-OV-3 ovarian. Also, the GI50 was 13.2 µM with OVCAR-8 ovarian, 12.7 µM in the assay with M14 melanoma, 19.4 µM in the assay with NCI-H522 lung and 17.7 µM in the assay with A549 NSCLC. The TGI was more than 100 µM in the assay on MOLT-4 leukemia; 14.6 µM with HS 578T breast; 44 µM with SK-MEL-2 melanoma; 27.6 µM in the assay with EKVX NSCLC; more than 100 µM in the assay on OVCAR-4 ovarian; 39.7 µM in the assay with SK-OV-3 ovarian. Besides, the TGI in the assay on OVCAR-8 ovarian came to 36.6 µM; in the assay with M14 melanoma, 25.6 µM; in the assay on NCI-H522 lung it was 43.7 µM; in the assay with A549 NSCLC it was 68 µM.

`Nc1nc(-c2cccc([N+](=O)[O-])c2)cc(-c2cc(-c3cccc([N+](=O)[O-])c3)nc(N)n2)n1`: the TGI in the assay with MOLT-4 leukemia, in the assay on HS 578T breast, in the assay with SK-MEL-2 melanoma, in the assay with EKVX NSCLC, in the assay on OVCAR-4 ovarian and in the assay with SK-OV-3 ovarian was more than 100 µM in each case. Moreover, the TGI in the assay on OVCAR-8 ovarian, in the assay with M14 melanoma, in the assay on NCI-H522 lung and with A549 NSCLC was more than 100 µM each time.
